Here are results for 25 compounds from patent US9598387B2 (Southern Research Institute, priority 2012, dated 2017).

Molecules are shown by their SMILES.

Assay [1] has as its target human D3 dopamine receptor (Homo sapiens (Human), UniProt P35462). The experiment in a line: Radioligand binding (125I-IABN competition), D3. The note with it: for Ki: 125I-IABN competition, HEK cell membranes expressing human D3; for D2/D3 (D3 selectivity ratio, D2 Ki/D3 Ki): calculated D2 Ki/D3 Ki. The procedure:
(§1) The affinities of the target compounds were determined using radioligand binding experiments. […] Competition curves were modeled for a single site. Data from competition dose-response curves were analyzed using Tablecurve program (Jandel). IC50 values were converted to equilibrium dissociation constants (Ki values) using the Cheng and Prusoff correction.

In assay [2] the target is human D2-long dopamine receptor (Homo sapiens (Human), UniProt P14416). Briefly: Radioligand binding (125I-IABN competition), D2. As to conditions: HEK cell membranes expressing human D2-long. As to the method: as §1
Sequence of human D2-long dopamine receptor (P14416 whole entry): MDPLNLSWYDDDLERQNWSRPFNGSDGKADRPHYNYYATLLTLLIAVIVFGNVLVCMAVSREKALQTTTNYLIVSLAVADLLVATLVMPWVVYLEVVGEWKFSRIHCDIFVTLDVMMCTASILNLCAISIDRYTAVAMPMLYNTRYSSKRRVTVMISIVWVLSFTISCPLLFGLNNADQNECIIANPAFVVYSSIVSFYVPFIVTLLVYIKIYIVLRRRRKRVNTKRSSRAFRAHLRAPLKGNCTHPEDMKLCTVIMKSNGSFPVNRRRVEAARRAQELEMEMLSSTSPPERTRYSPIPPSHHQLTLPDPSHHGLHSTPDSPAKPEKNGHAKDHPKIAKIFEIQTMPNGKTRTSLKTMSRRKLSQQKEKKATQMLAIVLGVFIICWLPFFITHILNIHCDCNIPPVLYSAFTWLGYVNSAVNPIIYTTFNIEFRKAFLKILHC

Sequence of human D3 dopamine receptor (P35462 whole entry): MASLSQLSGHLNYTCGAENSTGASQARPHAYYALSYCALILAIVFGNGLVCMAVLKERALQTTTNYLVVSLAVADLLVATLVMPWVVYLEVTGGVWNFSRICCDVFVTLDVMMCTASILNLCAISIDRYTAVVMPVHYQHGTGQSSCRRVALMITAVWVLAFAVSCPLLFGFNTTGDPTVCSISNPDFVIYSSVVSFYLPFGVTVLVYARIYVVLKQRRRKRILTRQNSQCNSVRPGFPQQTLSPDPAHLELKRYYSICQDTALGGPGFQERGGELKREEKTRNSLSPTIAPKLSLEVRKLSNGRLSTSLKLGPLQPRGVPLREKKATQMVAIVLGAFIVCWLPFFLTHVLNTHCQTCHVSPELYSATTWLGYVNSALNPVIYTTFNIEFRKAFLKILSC

In general, Ki refers to the equilibrium dissociation constant of an inhibitor or competing ligand from its target. Lower therefore signals higher affinity. Turning to `CC(C)(C)c1nc(N2CCN(CCCCNC(=O)N3CCN(C4CC4)CC3)CC2)cc(C(F)(F)F)n1` [Compound 35, N-(4-(4-(2-(tert-Butyl)-6-(trifluoromethyl)pyrimidin-4-yl)piperazin-1-yl)butyl)-4-cyclopropylpiperazine-1-carboxamide], the Ki in assay [1] is 12.8 ± 2.3 nM; in assay [2], 331 ± 51.9 nM. In addition, the “D2/D3 (D3 selectivity ratio, D2 Ki/D3 Ki)” value in assay [1] is recorded as 26.
On to `Cc1nc(N2CCN(CCCCNC(=O)N3CCn4c(C)nnc4C3)CC2)cc(C(C)(C)C)n1` [Compound 88, N-(4-(4-(6-(tert-Butyl)-2-methylpyrimidin-4-yl)piperazin-1-yl)butyl)-3-methyl-5,6-dihydro-[1,2,4]triazolo[4,3-a]pyrazine-7(8H)-carboxamide], for which, in assay [1], the Ki was 668 ± 122 nM and the “D2/D3 (D3 selectivity ratio, D2 Ki/D3 Ki)” value is 16. This compound also displayed an inhibition constant Ki in assay [2] of 10500 ± 2240 nM.
The like results for `CC(C)(C)c1nc(N2CCN(CCCCNC(=O)N3CCN(C4CCCCC4)CC3)CC2)cc(C(F)(F)F)n1` [Compound 69, N-(4-(4-(2-(tert-Butyl)-6-(trifluoromethyl)pyrimidin-4-yl)piperazin-1-yl)butyl)-4-cyclohexylpiperazine-1-carboxamide] were, in that order, 29.8 ± 3.8 nM, 7 and 215 ± 54.1 nM.
In the same order, the values of `O=C(NCCCCN1CCN(c2ccnc3cc(Cl)ccc23)CC1)C1CCC(c2ccccc2)CC1` (centres unmarked) [Compound 105, N-(4-(4-(7-Chloroquinolin-4-yl)piperazin-1-yl)butyl)-4-phenylcyclohexanecarboxamide] are 34.5 ± 7.6 nM, 29 and 1020 ± 68.2 nM.
Consider `CC(C)(C)c1nc(N2CCN(CCCCNC(=O)N3CCCc4ccccc43)CC2)cc(C(F)(F)F)n1` [Compound 70, N-(4-(4-(2-(tert-Butyl)-6-(trifluoromethyl)pyrimidin-4-yl)piperazin-1-yl)butyl)-3,4-dihydroquinoline-1(2H)-carboxamide], for which the inhibition constant Ki in assay [1] is 33.5 ± 8 nM; in assay [2], 215 ± 36.3 nM. The “D2/D3 (D3 selectivity ratio, D2 Ki/D3 Ki)” value in assay [1] is reported as 6.
Consider `Cc1cccc(N2CCN(C(=O)NCCCCN3CCN(c4cc(C(F)(F)F)nc(C(C)(C)C)n4)CC3)CC2)c1C` [Compound 24, N-(4-(4-(2-(tert-Butyl)-6-(trifluoromethyl)pyrimidin-4-yl)piperazin-1-yl)butyl)-4-(2,3-dimethylphenyl)piperazine-1-carboxamide], for which, in assay [1], the inhibition constant (Ki) turned out to be 29.9 ± 5.6 nM and the “D2/D3 (D3 selectivity ratio, D2 Ki/D3 Ki)” value is given as 39. The compound further had a Ki in assay [2] of 1180 ± 265 nM.
In the same order, the values of `O=C(NCCCCN1CCN(c2ccnc3ccccc23)CC1)c1nc2ccccn2c1Cl` [Compound 129, 3-Chloro-N-(4-(4-(quinolin-4-yl)piperazin-1-yl)butyl)imidazo[1,2-a]pyridine-2-carboxamide] are 323 ± 75 nM, 11 and 3560 ± 1950 nM.
In the same order, the values of `COc1ccc2[nH]c3c(c2c1)CN(C(=O)NCCCCN1CCN(c2cc(C(F)(F)F)nc(C(C)(C)C)n2)CC1)CC3` [Compound 92, N-(4-(4-(2-(tert-Butyl)-6-(trifluoromethyl)pyrimidin-4-yl)piperazin-1-yl)butyl)-8-methoxy-3,4-dihydro-1H-pyrido[4,3-b]indole-2(5H)-carboxamide] are 166 ± 4.1 nM, 8 and 1350 ± 241 nM.
In the same order, the values of `Cc1nc(N2CCN(CCCCNC(=O)N3CCc4[nH]c5ccc(Cl)cc5c4C3)CC2)cc(C(C)(C)C)n1` [Compound 95, N-(4-(4-(6-(tert-Butyl)-2-methylpyrimidin-4-yl)piperazin-1-yl)butyl)-8-chloro-3,4-dihydro-1H-pyrido[4,3-b]indole-2(5H)-carboxamide] are 215 ± 45.5 nM, 26 and 5560 ± 1340 nM.
Turning to `COc1cccc(N2CCN(C(=O)NCCCCN3CCN(c4cc(C(F)(F)F)nc(C(C)(C)C)n4)CC3)CC2)c1` [Compound 20, N-(4-(4-(2-(tert-Butyl)-6-(trifluoromethyl)pyrimidin-4-yl)piperazin-1-yl)butyl)-4-(3-methoxyphenyl)piperazine-1-carboxamide], in assay [1], the inhibitory constant (Ki) was 13 ± 0.7 nM and the “D2/D3 (D3 selectivity ratio, D2 Ki/D3 Ki)” value is 58. In assay [2], this compound registered an inhibition constant Ki of 762 ± 159 nM.
For the compound `CC(C)(C)c1nc(N2CCN(CCCCNC(=O)N3CCN(c4cccc(Cl)c4)CC3)CC2)cc(C(F)(F)F)n1` [Compound 15, N-(4-(4-(2-(tert-Butyl)-6-(trifluoromethyl)pyrimidin-4-yl)piperazin-1-yl)butyl)-4-(3-chlorophenyl)piperazine-1-carboxamide], in assay [1], the Ki worked out at 19.3 ± 1.6 nM and the “D2/D3 (D3 selectivity ratio, D2 Ki/D3 Ki)” value is reported as 30. Moreover, in assay [2], the inhibition constant (Ki) came to 582 ± 127 nM.
Regarding `CC(C)(C)c1nc(N2CCN(CCCCNC(=O)N3CCC(O)(c4ccccc4)CC3)CC2)cc(C(F)(F)F)n1` [Compound 49, N-(4-(4-(2-(tert-Butyl)-6-(trifluoromethyl)pyrimidin-4-yl)piperazin-1-yl)butyl)-4-hydroxy-4-phenylpiperidine-1-carboxamide], the Ki in assay [1] stood at 27 ± 3.9 nM; in assay [2], 1270 ± 291 nM. Also, in assay [1], the “D2/D3 (D3 selectivity ratio, D2 Ki/D3 Ki)” value is 47.
The like results for `CC(C)(C)c1nc(N2CCN(CCCCNC(=O)N3CCC(C#N)(c4ccccc4)CC3)CC2)cc(C(F)(F)F)n1` [Compound 17, N-(4-(4-(2-(tert-Butyl)-6-(trifluoromethyl)pyrimidin-4-yl)piperazin-1-yl)butyl)-4-cyano-4-phenylpiperidine-1-carboxamide] were, in that order, 16 nM, 843 ± 95 nM and 52.
In the same order, the values of `CC(C)(C)c1nc(N2CCN(CCCCNC(=O)N3CCCC(c4ccccc4)CC3)CC2)cc(C(F)(F)F)n1` (centres unmarked) [Compound 82, N-(4-(4-(2-(tert-Butyl)-6-(trifluoromethyl)pyrimidin-4-yl)piperazin-1-yl)butyl)-4-phenylazepane-1-carboxamide] are 129 ± 21.9 nM, 668 ± 135 nM and 5.
On to `CC(C)(C)c1nc(N2CCN(CCCCNC(=O)N3CCc4ccccc4CC3)CC2)cc(C(F)(F)F)n1` [Compound 42, N-(4-(4-(2-(tert-Butyl)-6-(trifluoromethyl)pyrimidin-4-yl)piperazin-1-yl)butyl)-4,5-dihydro-1H-benzo[d]azepine-3(2H)-carboxamide], for which, in assay [1], the Ki came to 2.3 ± 0.3 nM and the “D2/D3 (D3 selectivity ratio, D2 Ki/D3 Ki)” value was 281. This compound returned a Ki in assay [2] of 646 ± 1.5 nM.
Regarding `CC(C)(C)c1nc(N2CCN(CCCCNC(=O)N3CCC(Oc4ccccc4)CC3)CC2)cc(C(F)(F)F)n1` [Compound 51, N-(4-(4-(2-(tert-Butyl)-6-(trifluoromethyl)pyrimidin-4-yl)piperazin-1-yl)butyl)-4-phenoxypiperidine-1-carboxamide], in assay [1], the affinity corresponds to a Ki of 44.1 ± 8.1 nM and the “D2/D3 (D3 selectivity ratio, D2 Ki/D3 Ki)” value is reported as 29. In assay [2], this compound gave a Ki of 1290 ± 248 nM.
For the compound `O=C(NCCCCN1CCN(c2cc(C(F)(F)F)nc3ccccc23)CC1)N1CCC(c2ccccc2)CC1` [Compound 100, 4-Phenyl-N-(4-(4-(2-(trifluoromethyl)quinolin-4-yl)piperazin-1-yl)butyl)piperidine-1-carboxamide], in assay [1], the inhibition constant (Ki) was 5320 ± 2220 nM and the “D2/D3 (D3 selectivity ratio, D2 Ki/D3 Ki)” value was greater than 18. For the same compound, the Ki in assay [2] is greater than 100000 nM.
For the compound `O=C(NCCCCN1CCN(c2ccnc3cc(C(F)(F)F)ccc23)CC1)c1cn2ccccc2n1` [Compound 124, N-(4-(4-(7-(Trifluoromethyl)quinolin-4-yl)piperazin-1-yl)butyl)imidazo[1,2-a]pyridine-2-carboxamide], the inhibition constant (Ki) in assay [1] was 98.7 ± 24.3 nM; in assay [2], 4980 ± 843 nM.
Turning to `Cc1cc(N2CCN(CCCCNC(=O)C3CCN(c4ccc(C(F)(F)F)cn4)CC3)CC2)nc(C(C)(C)C)n1` [Compound 107, N-(4-(4-(2-(tert-Butyl)-6-methylpyrimidin-4-yl)piperazin-1-yl)butyl)-1-(5-(trifluoromethyl)pyridin-2-yl)piperidine-4-carboxamide], in assay [1], the Ki was 30.6 ± 7.4 nM and the “D2/D3 (D3 selectivity ratio, D2 Ki/D3 Ki)” value was 32. In addition, the Ki in assay [2] turned out to be 970 ± 137 nM.
`Cc1cc(N2CCN(CCCCNC(=O)c3cn4ccccc4n3)CC2)nc(C(C)(C)C)n1` [Compound 111, N-(4-(4-(2-(tert-Butyl)-6-methylpyrimidin-4-yl)piperazin-1-yl)butyl)imidazo[1,2-a]pyridine-2-carboxamide] came in with a Ki in assay [2] of 366 nM.
Same read-out and setting: for `Cc1nc(N2CCN(CCCCNC(=O)c3cn4ccccc4n3)CC2)cc(C(C)(C)C)n1` [Compound 125, N-(4-(4-(6-(tert-Butyl)-2-methylpyrimidin-4-yl)piperazin-1-yl)butyl)imidazo[1,2-a]pyridine-2-carboxamide] the value was 4600 ± 785 nM; for `CC(C)(C)c1nc(N2CCN(CCCCNC(=O)C3CCN(c4ccccc4)CC3)CC2)cc(C(F)(F)F)n1` [Compound 108, N-(4-(4-(2-(tert-Butyl)-6-(trifluoromethyl)pyrimidin-4-yl)piperazin-1-yl)butyl)-1-phenylpiperidine-4-carboxamide], 809 ± 194 nM.
Still for that read-out and setting: for `O=C(NCCCCN1CCN(c2ccnc3cc(Cl)ccc23)CC1)c1cn2ccccc2n1` [Compound 118, N-(4-(4-(7-Chloroquinolin-4-yl)piperazin-1-yl)butyl)imidazo[1,2-a]pyridine-2-carboxamide] the value was 1880 ± 488 nM; for `CC(C)(C)c1nc(C2CC2)cc(N2CCN(CCCCNC(=O)c3cn4ccccc4n3)CC2)n1` [Compound 112, N-(4-(4-(2-(tert-Butyl)-6-cyclopropylpyrimidin-4-yl)piperazin-1-yl)butyl)imidazo[1,2-a]pyridine-2-carboxamide], 191 nM; for `O=C(NCCCCN1CCN(c2cc(C(F)(F)F)nc3ccccc23)CC1)c1cn2ccccc2n1` [Compound 130, N-(4-(4-(2-(Trifluoromethyl)quinolin-4-yl)piperazin-1-yl)butyl)imidazo[1,2-a]pyridine-2-carboxamide], 13600 ± 6260 nM.
